Among the data in a melting point compilation (Tetko et al.; mined from patent text by program, amines drawn as free bases though some values may be those of a salt) are melting point values, retold here.

Each structure is given as a SMILES string. Residues, ends and D or L forms follow the SMILES beside them. *: point of attachment. Cbz = O=C(OCc1ccccc1)*; NHPr = CCCN*

`Cn1nc(Oc2ccc([N+](=O)[O-])c([N+](=O)[O-])c2)c(Cl)c1C(F)(F)F`: the melting point lay in the range of 139 to 140 °C.
For `O=C(O)c1cn(-c2nccs2)c2nc(Cl)cc(Cl)c2c1=O`, the melting point fell in the range of 264 to 266 °C.
`Cc1cc2c3c(c1)NC(=O)c1ccccc1N3CC2`: the melting point lay within 222 to 224 °C.
`CCOC(=O)c1cn(C2CC2)c2c(F)c(N3CC[C@H](NC(=O)OC(C)(C)C)C3)c(F)cc2c1=O` had a melting point of 148 to 151 °C.
Compound `CN(C)S(=O)(=O)c1cc(N)c(N)c([N+](=O)[O-])c1` displayed a melting point of 211 to 213 °C.
The result for `Cc1cnc2c(NC(=O)c3c(Cl)cccc3Cl)cccc2c1Oc1ccccc1` reads 168 to 170 °C; that for `COc1ccc(S(=O)(=O)c2c(Br)cc(CC(=O)O)cc2Br)cc1C1CCCCC1`, 146 to 150 °C.
`CN1CS(=O)c2cccc(Cl)c21` (centres undefined): the melting point was 130 to 132 °C.
In turn, `Cc1c(C(=O)NCc2ccc3c(Br)c(OC(Cc4ccccc4)C(=O)O)ccc3c2)oc2ccccc12` (centres undefined) displayed a melting point of 110 to 113 °C.
The value for `CCCSc1cc(-c2ccc(C(F)(F)F)cc2)c(F)cc1[N+](=O)[O-]` was 57 to 59 °C.
On to `CCN(C(C)=O)c1cccc(-c2ccnc3c([N+](=O)[O-])cnn23)c1`, for which the melting point lay in the range of 176 to 178 °C.
Compound `N#Cc1ccc(NC(=O)c2ccc(S(=O)(=O)N3CCc4cc(Cl)ccc43)cc2)c(-c2n[nH]c(=O)o2)c1` came in with a melting point of 262 to 264 °C.
In turn, `CC(C)N1C(=O)c2cnc(-c3ccccc3)nc2N(C(=O)CN2CCCCC2)c2ccccc21` came in with a melting point of 152 to 154 °C.
Turning to `O=C(/C=C/C=C/c1ccccc1)NCCCCC(=O)NO`, the melting point lay within 168 to 170 °C.
Consider `Cc1nc2c(N)nc3ccccc3c2n1CCC1(O)CCOCC1`, for which the melting point is more than 253 °C.
As for `COc1ccc2c(C(=S)N(C)CC(=O)N(C)C)cccc2c1C(F)(F)F`, the melting point was 172 to 175 °C.
The result for `CSc1cc(C)cc(C)c1C=NO` reads 115 to 117 °C; that for `CN(C)c1ccc(/C=C/C(=O)CC(=O)/C=C/c2ccc3cc[nH]c3c2)cc1`, 112 to 119 °C.
Consider `Cc1nc2ccc3c(c2o1)C(=CC#N)CC3`, for which the melting point lay in the range of 180 to 182 °C.
For `CCCc1cc(CCC)n2nc(C)c(C#N)c2n1`, the melting point fell in the range of 73 to 74 °C.
The compound `CC(C)(C)c1cc(C=C(C#N)C#N)cc(Cl)c1O` gave a melting point of 173 °C.
`COc1ccccc1CN1N=C(c2ccc(OC)c(OC)c2)[C@@H]2CCCC[C@@H]2C1=O` (relative stereo) had a melting point of 96 to 99 °C.
Take `O=C1OCCc2ccc([N+](=O)[O-])cc21`: the melting point fell in the range of 124 to 125 °C.
The value for `Cc1ccc2c(c1)c1c(OCC#N)cccc1n2Cc1ccccc1` was 188 °C; that for `COc1cccc2c1Sc1ccc(Cl)cc1C2` was 95 to 96 °C.
The compound `OC[C@@H](COc1ccccc1)OC1CCCCO1` (some centres undefined) showed a melting point of 39 to 41 °C.
The result for `O=C1C(c2cc3c(cc2O)OCCC3)c2ccccc2N1C(c1ccccc1)c1ccccc1` (centres undefined) reads 207 to 210 °C.
Turning to `COC(=O)Cc1cc(=O)[nH]c2ccccc12`, the melting point was 209 to 210 °C.
The value for `C=CCc1cc(Nc2ccn(-c3ccccc3)n2)cc(CC=C)c1OC(C)=O` was 110 to 111 °C; that for `Nc1nc(/C(=N/OCC(=O)OC(c2ccccc2)c2ccccc2)C(=O)O)cs1` was 125 °C; that for `CCOC(=O)c1sc(N)nc1C(C)(C)C` was 99 to 100 °C.
As for `CCCCCCCCCOc1ccc(F)c(C(N)=O)c1Cl`, the melting point lay in the range of 64 to 66 °C.
The result for `COc1cccc2c(Nc3ccccc3C)nc(N(C)C)nc12` reads 141 to 143 °C; that for `O=C(O)Cc1ccc(Br)cc1F`, 121 to 122 °C.
In the case of `CCn1cc(C(=O)O)c(=O)c2cc(F)c(-c3ccnc(CNC(=O)OCc4ccccc4)n3)c(F)c21`, the melting point was 195 to 196 °C.
As to `NS(=O)(=O)c1ccc(-n2nc(C(F)(F)F)cc2-c2ccc([N+](=O)[O-])cc2)cc1`, the melting point was in the range of 173 to 175 °C.
Compound `C=CCc1ccc(OCCC(C)C)c2c(=O)cc(C(=O)OCC)oc12` displayed a melting point of 104 to 106 °C.
Consider `CCCCCCCCCCCCC(OC(C)=O)C1=CC(=O)OC1O` (centres undefined), for which the melting point is 67 to 68 °C.
As to `O=C(Nc1ccc2cn[nH]c2c1)C(=O)N1CCC(Cc2ccc(F)cc2)CC1`, the melting point was 162 to 164 °C.
`O=C1c2ccccc2-n2cnc(-c3nc(CCl)cs3)c2[C@@H]2CCN12` came in with a melting point of 248 to 249 °C.
The compound `CC(=O)n1cc(Cl)c(-c2cccc(C(F)(F)F)c2)c1` yielded a melting point of 70 to 71.5 °C.
`O=C(CCl)NC1CCCc2sccc21` (centres undefined): the melting point was 115 to 119 °C.
Compound `CC(C)NC(=O)Nc1c(C(=O)c2ccccc2)[nH]c2cc(Cl)ccc12` displayed a melting point of 265 to 266 °C.
Regarding `Cc1ccc(NCc2ccc(N(C)C)cc2)c(C)c1`, the melting point fell in the range of 79 to 80 °C.
With `NC(=O)c1cnn(C2OC(CO)C(O)C2O)n1` (centres undefined), the melting point was 150 to 151 °C.
`Cc1cnnc2c1C(=O)CC(c1ccsc1)C2` (centres undefined) gave a melting point of 125 to 126 °C.
Compound `CC(C(=O)CO)c1ccc(-c2ccccc2)c(F)c1` (centres undefined) returned a melting point of 63 to 64.5 °C.
Take `CCOC(=O)Cc1c(C)nn(-c2ccccn2)c1-c1ccccc1`: the melting point fell in the range of 89 to 90 °C.
The result for `COc1cc2nc(SCc3nccc(N(C)C)c3Cl)[nH]c2cc1OC` reads 121 to 122 °C.
Consider `NC(=O)c1cccc(OCCCCCn2cnc3c(Cl)ncnc32)c1`, for which the melting point was in the range of 132 to 133 °C.
The value for `Cc1c(C)c2c(c(C)c1N)C(c1ccc(C(C)C)cc1)C1(CCN(C)CC1)O2` (centres undefined) was 123 to 124 °C; that for `Nc1sc2c(c1C(=O)c1ccc3c(c1)OCO3)CCN(C(=O)c1ccccc1)C2` was 211 to 212 °C.
Turning to `CN(C)CCCOc1cc(-c2ncccc2Cl)cc2c(Nc3nccs3)n[nH]c12`, the melting point is 215 to 217 °C.
In turn, `Cc1cc2cc(C(=O)OCc3ccccc3)n(CC(=O)OC(C)(C)C)c2cc1C` registered a melting point of 133 to 134 °C.
As to `COc1ccc(C2(C#Cc3cccc(-c4nc(C)no4)c3)CCCC(=O)C2)cc1OC1CCCC1` (centres undefined), the melting point fell in the range of 122 to 123 °C.
Compound `C=C1C2CCC(=O)C23CCC(C3)C1(C)C` (centres undefined) had a melting point of 77 to 79 °C.
Regarding `CS(=O)(=O)OCCC1c2ccccc2C(=O)N1c1ccccc1` (centres undefined), the melting point fell in the range of 100 to 101 °C.
The value for `COC(=O)C1=C(C)NC(C)=C(C(=O)OCOC(=O)C(C)(C)C)C1c1cccc(Cl)c1Cl` (single isomer, unassigned; (+)) was 154 to 155 °C.
The value for `CN1CCC(OC(=O)COC(=O)c2ccccc2Nc2ccnc3c(C(F)(F)F)cccc23)(c2ccccc2)CC1` was 144 to 145 °C; that for `CC(C)(C)OC(=O)N1CCC(O)(CS)CC1` was 54 to 55 °C.
In the case of `O=C(CCC1CCCCCCCCCCC1)C1=C(O)COC1=O`, the melting point fell in the range of 99 to 102 °C.
Take `CCOCN(C(=O)CCl)c1c(OC)cccc1OC`: the melting point fell in the range of 95 to 97 °C.
With `CC(=O)N1CCc2nc(N)nc(-c3ccc(Cl)cc3)c2C1`, the melting point was 218 to 220 °C.
The value for `CC(C)c1ccc2c(c1)OC1(OC(=O)C(C)(C)C)c3ccccc3C(=O)C21OC(=O)C(C)(C)C` (centres undefined) was 153 to 157 °C; that for `CC(C)OC(=O)c1ccc2c(c1)ncn2-c1cccc(N2CCN(C)CC2)c1` was 173 to 174 °C.
The result for `COc1cc(COc2nn(-c3ccccc3)cc2/C=C/c2nc(C(=O)O)cs2)ccc1OCc1nc(-c2ccco2)oc1C` reads 170 to 172 °C.
In turn, `N#Cc1c(Nc2c(F)cccc2F)cccc1-c1ccccc1` showed a melting point of 139 to 141 °C.
With `COc1cc(C(C)C)c2c(c1)S(=O)(=O)N(COC(=O)c1cccc(O)c1)C2=O`, the melting point fell in the range of 71 to 73 °C.
Compound `COc1cc(C(C)C)c(NC(=O)CN2CCN(CCSc3nc4cccc(C(F)(F)F)c4o3)CC2)c(C(C)C)c1` had a melting point of 122 to 123 °C.
On to `CC(=O)OCc1ncc2n1-c1ccc(Cl)cc1C(c1ccccc1F)=NC2`, for which the melting point is 151 to 152 °C.
The value for `Cc1nc(N2CCN(C)CC2)nc(N)c1-c1cccc(Br)c1` was 120 to 122 °C; that for `COC(=O)COC(=O)COc1ccc(N)cc1` was 76.5 to 78.5 °C; that for `Fc1ccc(-c2nc(SC(F)(F)C(F)F)[nH]c2-c2ccncc2)cc1` was 242 to 248 °C.
The result for `NC(=O)NC1COCC1c1ccccc1-n1nc(C(F)(F)F)cc1C(F)(F)F` (centres undefined) reads 198 to 200 °C; that for `CCCNC(=O)C1CCCN1C(=O)C(C)NC(=O)OCc1ccccc1` (stereo not drawn) (Cbz-Ala-Pro-NHPr; configuration not given here), 117 to 120 °C.
`CN=C=Nc1ccccc1N1CCOCC1` gave a melting point of 67 to 68 °C.
Regarding `CC1(C)C(=O)N(c2ccc([N+](=O)[O-])c(C(F)(F)F)c2)C(=O)N1CCCCN1C(=O)N(c2ccc([N+](=O)[O-])c(C(F)(F)F)c2)C(=O)C1(C)C`, the melting point lay within 211 to 212 °C.
`COc1ccc(-c2nc(CO)c[nH]2)cc1OC1CCCC1` displayed a melting point of 188 to 190 °C.
On to `N#Cc1cccc2c1C(O)CC2` (centres undefined), for which the melting point came to 73 °C.
Compound `OC(CCCl)COc1ccc(-c2ccccc2)cc1` (centres undefined) returned a melting point of 123 to 124 °C.
With `CCOC(=O)c1ccc(C(=O)O)c2c([N+](=O)[O-])cccc12`, the melting point lay in the range of 178 to 180 °C.
`CCOc1ccc(Nc2n[nH]c3ncnc(Nc4cccc(Cl)c4)c23)cc1` displayed a melting point of 232 to 233 °C.
The value for `O=[N+]([O-])c1cccc(-n2ccnc2)c1` was 101 to 102 °C.
The compound `CC(C)(C)OC(=O)N1CCN(c2ncccc2C=O)CC1` registered a melting point of 88 to 89 °C.
The value for `COC(=O)CCCCCCC(C(=O)OC)S(C)(=O)=O` (centres undefined) was 47 to 48 °C; that for `CC(=O)Nc1cc(F)ccc1S(=O)(=O)CC#N` was 131 to 132 °C; that for `COc1cccc(Cc2n[nH]c3c2c(=O)n(-c2ccccc2)c2ncccc32)c1` was 234 to 236 °C.
Turning to `O=C1NC(=O)c2c1cc1ccc3c(c1c2-c1ccc(Br)cc1)OCO3`, the melting point fell in the range of 324 to 327 °C.
The value for `COc1ccc2sc(C(N)=O)c(SCCN3CCOCC3)c2c1` was 158 to 160 °C.

As usually defined, the melting point is the temperature of the solid-liquid transition.
